In patent US20100130598A1, “METHODS FOR INDUCING PROGRAMMED CELL DEATH” (Novogen Research Pty Ltd., priority 2008, published 2010):

Assays:
[1] = tested on: EndoG; test: Immunohistochemistry of xenograft tumors for EndoG; format: in vivo, NCR nude mice; conditions: paraffin-embedded tumor sections; control tumors only cytoplasmic staining
Method: Mouse xenograft studies. The in vivo study as approved by the Yale University Institutional Animal Care & Use Committee. Cells (1×10^6 cells) were resuspended in 200 μ1 total volume of 50% RPMI and 50% BD Matrigel Matrix (BD Biosciences, Bedford, Mass.) and injected subcutaneously into the right flank of NCR nude mice. Intra-peritoneal therapy commenced eight days post-inoculation as follows: Paclitaxel 10 mg/kg q×3d, Carboplatin 40 mg/kg q×7d, and Compound 1 in 20% HPBCD, 100 mg/kg every day. Control groups received 20% HPBCD in PBS. Mice were treated and observed for 3 weeks. Tumor size was determined by caliper measurements and anti-tumor activity was analyzed with respect to maximal tumor inhibition (treated/control, T/C) as described previously (Kamsteeg et al, 2003).
Immunohistochemistry. Immunohistochemistry was performed as described previously (Kelly et al, 2006) using rabbit anti-EndoG (Lifespan Biosciences, Seattle, Wash.) at 1:100 dilution.

[2] = tested on: Caspase 2, 3 and 9 in MIAPaCa-2 cells; test: In situ caspase activity by flow cytometry, MIAPaCa-2; format: cell-based, human; conditions: MIAPaCa-2, 10 μM, after 48 hrs
Method: (§1) Cells. Human pancreatic cell lines HPAC, MIAPaCa-2 and PANC-1 were obtained from the ATCC. (Manassas, Va.). The cells were maintained in DMEM media with Gln and high glucose (Mediatech, Manassas, Va.) with 10% fetal bovine serum (FBS, HyClone, Logan, Utah) and pencillin/streptomycin.
Caspase Activity After 48 h treatment with 10 μM Compound 10, HPAC, MIAPaCa-2 and PANC-1 cells were harvested by trypsinization and resuspended in DMEM media with 10% FBS. The cells were incubated with caspase substrates for 1 h at 37° C., 5% CO2, then probed with Annexin-V-Cy5 and sytox blue. Caspase +ve cells were gated as shown in the histograms and these cells are indicated on the Annexin-V-Cy5/sytox blue spectra as blue cells. In situ caspase activity was assayed using fluorescent substrates. For Caspase 2, FITC-VDVAD-fmk (Biovision K182-100), for Caspase 3, FITC-DEVD-fmk (K183-100) and for Caspase 9, FITC-LEHD-fmk (K199-100) was used. These substrates bind irreversibly to their respective activated caspases, and caspase activation was quantitated by flow cytometry. […] Caspase activation, apoptosis and necrosis were measured simultaneously using a violet, blue and red laser in a BD LSRII flow cytometer.

[3] = tested on: MIAPaCa-2 cells; test: Western blot analysis of apoptosis regulatory proteins, p21 and p53, MIAPaCa-2; format: cell-based, human
Text: as §1
(§2) Antibodies. Antibodies utilised in this study specific to p53 and, p21 were obtained from (Calbiochem, EMD, San Diego, Calif.), Caspase 9, XIAP, COX IV, Bcl2 and Akt (Cell Signaling Technology, Danvers, Mass.), Caspase 2, Cytochrome c and Bid (BD Pharmingen, San Diego, Calif.). GAPDH (RDI, Concord, Mass.) or β-actin (Sigma, St. Louis, Mo.) was used as a housekeeping gene to standardize the protein loading on the gels and blots.
(§3) Western blot analysis. Cells were seeded on 100 mm tissue culture plates and grown overnight to ˜90% confluence. Cells were then treated with the drug combinations for indicated time points. After the final treatment step, the cells were lysed with 500 μL of a lysis buffer containing 1% Nonidet P-40, 0.1% SDS, 0.5% deoxycholate, 150 mM NaCl, 50 mM Tris-HCl pH7.5, 1 mM EDTA, 1 mM PMSF and protease inhibitors (Roche) on ice for 30 minutes. Cell lysates were harvested with a sterile cell scraper and centrifuged at 15,000×g for 15 minutes to remove cell debris. Protein was assayed by the BCA method (Pierce) and 50 μg aliquots were separated on 12%, T, 2.6%C SDS-PAGE gels. Proteins were electrophoretically transferred to PVDF membranes (Immobilon P, Millipore, Billerica, Mass.) by the wet transfer method. These membranes were probed with specific antibodies and with anti-GAPDH which was used as the housekeeping gene to standardize the protein loading. The blots were developed on X-ray films using HRP-conjugated secondary antibodies (Southern Biotech, Birmingham, Ala.) and a chemiluminescent substrate (ECL, Amersham, N.Y.).

[4] = tested on: HPAC cells; test: Western blot analysis of apoptosis regulatory proteins, p21 and p53, HPAC; format: cell-based, human; conditions: 10 μM
Text: as §1, §2, §3

[5] = tested on: PANC-1 cells; test: Mitochondrial membrane potential by FACS (JC-1), PANC-1; format: cell-based, human; conditions: PANC-1, dose-dependent, 48 hrs of treatment
Method: as §1
(§4) FACS Analysis. Apoptosis was measured by FACS analysis using Annexin-V-FITC and propidium iodide (PI) (Biovision, Mountain View, Calif.) as probes (Ahn et al., 2003). Mitochondrial membrane potential was measured by FACS analysis using JC-1 (Biovision) as a probe (Ahn et al., 2003). Cell cycle was analyzed on ethanol-fixed, RNaseA-treated cells staining with PI. In each spectrum, 10,000 gated events were recorded and analyzed with a FACSCalibur (BD Biosciences. San Jose, Calif.). All experiments were done in triplicate, error bars represent one standard deviation. Caspase inhibitor I (zVAD-fmk) was obtained from Calbiochem.

[6] = tested on: PANC-1 cells; test: Cell cycle analysis by FACS (PI), PANC-1; format: cell-based, human; conditions: PANC-1, 10 μM
Method: as §1, §4

## COc1ccc(C2c3ccc(O)c(C)c3OCC2c2ccc(O)cc2)cc1 (centres unmarked) [Compound 1, 3-(4-hydroxyphenyl)-4-(4-methoxyphenyl)-8-methylchroman-7-ol]
[1]
  localization of EndoG in tumors: nuclear localization

## COc1ccc(C2c3ccc(O)cc3OCC2c2ccc(O)cc2)cc1 (centres unmarked) [Compound 10, 3-(4-hydroxyphenyl)-4-(4-methoxyphenyl)chroman-7-ol]
[2]
  caspase 2, 3 and 9 activation: activated
[3]; MIAPaCa-2 (mutant p53), 10 μM
  expression of p53: unaffected
[3]; MIAPaCa-2, 10 μM
  cleavage of Caspase 3: did not cause significant cleavage
  full-length Caspase 2 (48Kd) cleavage: cleaved
  levels of Bcl2: lowered
  p21: elevated
[3]; MIAPaCa-2, 10 μM, early timepoint (4 hr)
  total Akt: reduced
[3]; MIAPaCa-2, 10 μM, over time
  Bid cleavage: induced Bid cleavage over time
[3]; MIAPaCa-2, 10 μM, time course 0-48 hrs
  cleaved caspase 9 (17kd): initial drop in cleaved caspase 9 (17kd) followed by an increase after 16 hr
[3]; MIAPaCa-2, 10 μM, degradation more pronounced than in HPAC
  level of XIAP: reduced
[4]; HPAC (wild type p53), by 48 hr
  expression of p53: elevated
[4]; HPAC
  Bid cleavage: transitory increase
  Caspase 2 cleavage: cleaved to a lesser extent
  cleavage of Caspase 3: did not cause significant cleavage
  level of XIAP: reduced
  levels of Bcl2: lowered
  p21: essentially unchanged
[4]; HPAC, early timepoint (4 hr)
  total Akt: reduced
[4]; HPAC, time course 0-48 hrs
  cleaved caspase 9 (17kd): initial drop in cleaved caspase 9 (17kd) followed by an increase after 16 hr
[5]
  mitochondrial depolarization: depolarized
[6]
  time of G2/M arrest post treatment: 4 to 24 h
  time remained in G2/M arrest: at least 48 hrs
